Measured values reported in US20060205826A1, “Method of using carotenoids in the prevention of cognitive decline and for other neuroprotection functions” (priority 2005, published 2006).

System: alloxan diabetic mice
Test: Hyperglycemic status (blood glucose) of alloxan diabetic mice
Assay type: in vivo
Details: for glycemia: diabetic mice
Experimental: Male albino mice were used throughout the study, housed in a environmentally regulated room on a dark-light cycle of 12 hours with free access to food and water. Principles of laboratory animal care (NIH publication no. 85-23, revised 1985) were followed, as well as specific Spanish regulations. Animals were made diabetic with a single subcutaneous injection of 200 mg alloxan/kg body weight (66 mg/ml) in 0.1 M citrate buffer, pH 4.5, at day 0 of the experiment. Control mice were injected with the same volume of vehicle also at day 0 of the experiment. Mice were identified as diabetic on the basis of blood glucose levels (higher than 16 mM at least 4 days after alloxan treatment). Animals were divided into subgroups as required by the experiment (control, control+lutein, diabetic, diabetic+lutein, diabetic+insulin, diabetic+insulin+lutein). […] Insulin treated animals were injected daily with 500 mU/g body weight since day 4 until the end of the experiment. Mice were killed by cervical dislocation on day 14, and hippocampus and retina were removed and homogenized in pre-chilled 0.2 M potassium phosphate buffer, pH 7.0. These homogenates were used to assay protein, GPx activity and MDA and GSH concentrations. Samples were kept frozen (−80° C.) until biochemical assays were performed. Blood was taken from the tail vein daily to assay blood glucose levels. Glycated hemoglobin was determined in blood samples obtained by heart puncture immediately before killing the animals.

In the case of `CC1=C[C@H](O)CC(C)(C)[C@H]1/C=C/C(C)=C/C=C/C(C)=C/C=C/C=C(C)/C=C/C=C(C)/C=C/C1=C(C)C[C@@H](O)CC1(C)C` [Lutein], the hyperglycemic status (alloxan diabetic mice, fourteen days after alloxan injection) is reported as “did not alter”, the glycemia (lutein 0.2 mg/kg p.o. on days 4-13 (hippocampus section)) is reported as “no effect” and the glycemia (lutein 100 mg/kg p.o. on days 4-13 (retina section)) is reported as “no effect”.
